What was measured:
[1] = molecular target: SCTR (secretin receptor) (Homo sapiens, UniProt P47872); test: cAMP accumulation assay, agonist mode; format: cell-based; conditions: CHO-K1, read-out: Emax in cAMP accumulation assays
[2] = molecular target: SCTR-SmBiT (UniProt P47872 23-440); test: cell-based or functional assay
SCTR-SmBiT, sequence (P47872 23-440): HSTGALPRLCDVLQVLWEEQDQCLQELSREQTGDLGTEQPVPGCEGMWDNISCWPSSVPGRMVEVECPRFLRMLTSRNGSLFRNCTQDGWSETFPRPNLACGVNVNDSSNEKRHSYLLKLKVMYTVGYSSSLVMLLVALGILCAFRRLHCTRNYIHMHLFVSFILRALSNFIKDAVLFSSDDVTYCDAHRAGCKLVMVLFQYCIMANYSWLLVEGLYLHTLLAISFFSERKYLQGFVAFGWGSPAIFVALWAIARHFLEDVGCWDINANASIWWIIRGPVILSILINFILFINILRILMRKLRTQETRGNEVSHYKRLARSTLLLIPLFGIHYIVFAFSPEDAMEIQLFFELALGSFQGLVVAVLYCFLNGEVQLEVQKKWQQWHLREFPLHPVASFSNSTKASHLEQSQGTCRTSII

SCTR (secretin receptor), sequence (P47872 23-440): as above

Emax [1] | β-arrestin-2 recruitment (NanoBiT, SCTR-SmBiT with LgBiT-ARRB2), EC50 [2] | Molecule
30% | – | CC(C)C[C@H](NC(=O)CNC(=O)[C@H](CCC(N)=O)NC(=O)[C@H](CC(C)C)NC(=O)[C@H](CC(C)C)NC(=O)[C@H](CCCNC(=N)N)NC(=O)[C@H](CCC(N)=O)NC(=O)[C@H](CC(C)C)NC(=O)[C@H](CCCNC(=N)N)NC(=O)[C@H](C)NC(=O)CNC(=O)[C@H](CCC(=O)O)NC(=O)[C@H](CCCNC(=N)N)NC(=O)[C@H](CC(C)C)NC(=O)[C@H](CCCNC(=N)N)NC(=O)[C@H](CO)NC(=O)[C@H](CC(C)C)NC(=O)[C@H](CCC(=O)O)NC(=O)[C@H](CO)NC(=O)[C@@H](NC(=O)[C@H](Cc1ccccc1)NC(=O)[C@@H](NC(=O)CNC(=O)[C@@H](N)CC(=O)O)[C@@H](C)O)[C@@H](C)O)C(=O)N[C@H](C(N)=O)C(C)C [Sec(3–27)]
– | 1300 nM | HSDGTFTSELSRLREGARLQRLL [Sec(1–23)]

Reference: article PMC8278649 (SLAS discovery : advancing life sciences R & D, 2020)
